The term EC50 denotes the concentration at which the effect is half-maximal.

The record followed here is patent publication US6444685B1, “N-(4-sulfonylaryl)Cyclylamine 2-hydroxyethylamines as beta-3 adrenergic receptor agonists” (Wyeth, priority 2000, dated 2002).

Assay type in all cases: cell-based
Test [1] addresses T1, human β3 adrenergic receptor (Homo sapiens, UniProt P13945).
T1 construct: Full length β3 AR clones (402 amino acids) containing the last 6 amino acids of hβ3— AR are prepared; expressed in transfected cells; host or cells: CHO cells
The experiment in a line: cAMP accumulation (SPA) in CHO cells transfected with human β3 adrenergic receptor. The note with it: for EC50: CHO cells expressing human β3-AR, cAMP, 30 min incubation, 10^−9 M to 10^−5 M, read-out: beta-3 EC50; for beta-3 (IA) maximal response relative to isoproterenol: IA = % activity compound / % activity isoproterenol at 10^−5 M, CHO human β3 cells. Here is the method: (§1) The ability of compounds of this invention to treat or inhibit disorders related to insulin resistance or hyperglycemia was established with representative compounds of this invention in the following standard pharmacological test procedures, which measured the binding selectivity to the β1, β2, and β3 adrenergic receptors. Binding to the receptors was measured in Chinese Hamster ovary (CHO) cells that were transfected with adrenergic receptors. The following briefly summarizes the procedures used and results obtained.
Cloning of Human β3-AR Genomic DNA: cDNA was constructed by ligating four polymerase chain reaction (PCR) products using the following primers: an ATG-Narl fragment, sense primer 5′-[…]3′ and anti-sense primer 5′[…]3′; a Narl-Accl fragment, 5′[…]3′ as sense and 5′[…]3′ as anti-sense primer; an Accli-Styl fragment, sense primer 5′[…]3′ and anti-sense primer 5′[…]3′ and a Styl-TAG fragment, with sense primer 5′[…]3′ and anti-sense primer 5′[…]3′. The corresponding primer sequences are described in Mantzoros, C. S., et.al., Diabetes 45: 909-914 (1996). The four fragments are ligated into a pUC 18 plasmid (Gibco-BRL) and sequenced. Full length β3 AR clones (402 amino acids) containing the last 6 amino acids of hβ3— AR are prepared with the β3-βARpcDNA3from ATTC.
(§2) Binding Procedure: Clones expressing receptor levels of 70 to 110 fmoles/mg protein were used in the test procedures. CHO cells were grown in 24-well tissue culture plates in Dulbecco's Modified Eagle Media with 10% fetal bovine serum, MEM non-essential amino acids, Penicillin-Streptompycin and Geneticin. On the day of test procedure, growth medium was replaced with preincubation media (Dulbecco's Modified Eagle Media and incubated for 30 minutes at 37° C. Preincubation medium was replaced with 0.2 ml treatment medium containing DMEM media containing 250 μM IBMX (isobutyl-1-methylxantine) plus 1 mM ascorbic acid with test compound dissolved in DMSO. Test compounds were tested over a concentration range of 10^−9 M to 10^−5 M for β3 cells and 10^−8 to 10^−4 M for β1 and β2 transfected cells. Isoproterenol (10^−5 M) was used as an internal standard for comparison of activity. Cells were incubated at 37° C. on a rocker for 30 min with the β3 cells and 15 min for β1 and β2 cells. Incubation was stopped with the addition of 0.2N HCl and neutralized with 2.5N NaOH. The plates, containing the cells and neutralized media, were stored at −20 degrees celsius until ready to test for cAMP using the SPA test kit (Amersham).
(§3) Data Analysis and Results: Data collected from the SPA test procedure were analyzed as per cent of the maximal isoproterenol response at 10^−5 M. Activity curves were plotted using the SAS statistical and graphics software. EC50 values were generated for each compound and the maximal response (IA) developed for each compound is compared to the maximal response of isoproternol at 10^−5 M from the following formula:
(§4) IA=% activity compound/% activity isoproterenol

Test [2] deals with T2, human β2-adrenergic receptor (Homo sapiens, UniProt P07550).
T2 construct: expressed in transfected cells; host or cells: CHO cells
The experiment in a line: cAMP accumulation (SPA) in CHO cells transfected with human β2 adrenergic receptor. Particulars: for EC50: CHO cells transfected with human β2-AR, cAMP, 15 min incubation, 10^−8 to 10^−4 M, read-out: beta-2 EC50; for beta-2 (IA) maximal response relative to isoproterenol: IA = % activity compound / % activity isoproterenol at 10^−5 M, CHO human β2 cells. Here is the method:
as §1
(§5) Transfection of CHO cells with β1 and β2 adrenergic receptors: CHO cells were transfected with human β1- or β2-adrenergic receptors as described in Tate, K. M., Eur. J. Biochem., 196:357-361 (1991).
as §2, §3, §4

Test [3] deals with T3, human β1-adrenergic receptor (Homo sapiens, UniProt P08588).
T3 construct: expressed in transfected cells; host or cells: CHO cells
In words: cAMP accumulation (SPA) in CHO cells transfected with human β1 adrenergic receptor. The note with it: for EC50: CHO cells transfected with human β1-AR, cAMP, 15 min incubation, 10^−8 to 10^−4 M, read-out: beta-1 EC50; for beta-1 (IA) maximal response relative to isoproterenol: IA = % activity compound / % activity isoproterenol at 10^−5 M, CHO human β1 cells. Here is the method: as §1, §5, §2, §3, §4
(Cyclic AMP is a second messenger, typically raised through Gs and lowered through Gi signalling.)

T1 sequence (P13945 whole entry): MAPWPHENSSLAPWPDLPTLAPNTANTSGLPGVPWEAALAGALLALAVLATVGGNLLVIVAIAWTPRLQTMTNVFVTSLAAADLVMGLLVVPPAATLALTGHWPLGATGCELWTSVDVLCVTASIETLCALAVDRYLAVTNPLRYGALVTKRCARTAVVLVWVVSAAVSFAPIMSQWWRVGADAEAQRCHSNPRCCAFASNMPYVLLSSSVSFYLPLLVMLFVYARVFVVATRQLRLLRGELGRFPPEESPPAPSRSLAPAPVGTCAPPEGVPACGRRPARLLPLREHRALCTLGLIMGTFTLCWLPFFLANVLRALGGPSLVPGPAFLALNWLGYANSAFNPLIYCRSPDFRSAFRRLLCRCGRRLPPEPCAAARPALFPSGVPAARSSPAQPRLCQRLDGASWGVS
T3 sequence (P08588 whole entry): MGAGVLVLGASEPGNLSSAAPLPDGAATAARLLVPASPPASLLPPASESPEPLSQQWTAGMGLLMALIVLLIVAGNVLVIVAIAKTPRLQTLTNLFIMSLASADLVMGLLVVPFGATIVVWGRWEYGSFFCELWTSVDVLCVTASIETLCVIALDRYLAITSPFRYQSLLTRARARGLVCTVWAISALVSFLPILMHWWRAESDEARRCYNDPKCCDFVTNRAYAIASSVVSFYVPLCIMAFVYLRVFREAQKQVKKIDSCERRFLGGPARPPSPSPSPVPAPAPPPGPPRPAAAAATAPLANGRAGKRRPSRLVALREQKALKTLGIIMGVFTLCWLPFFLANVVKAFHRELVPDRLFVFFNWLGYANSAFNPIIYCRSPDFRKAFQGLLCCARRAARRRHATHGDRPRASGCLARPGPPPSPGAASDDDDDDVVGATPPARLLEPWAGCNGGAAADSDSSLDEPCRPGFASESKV

As to “1-(4-{4-[2-Hydroxy-2-(4-hydroxy-3-methanesulfonylmethyl-phenyl)-ethylamino]-piperidin-1-yl}-benzenesulfonylamino)-cyclopentane Carboxylic Acid Ethyl Ester [Example 40]”, in test [1], the EC50 amounted to 0.004 µM and the “beta-3 (IA) maximal response relative to isoproterenol” value is recorded as “(1.2)”. In test [2], the 50% effective concentration (EC50) was 0.04 µM and the “beta-2 (IA) maximal response relative to isoproterenol” value is reported as “(0.31)”. In test [3], the concentration giving a half-maximal response (EC50) worked out at 1.9 µM and the “beta-1 (IA) maximal response relative to isoproterenol” value is listed as “(0.45)”.
Regarding “1-(4-{4-[2-Hydroxy-2-(4-hydroxy-3-methanesulfonylmethyl-phenyl)ethylamino]-piperidin-1-yl}-benzenesulfonylamino)cyclohexane Carboxylic Acid Ethyl Ester [Example 43]”, in test [1], the EC50 stood at 0.001 µM and the “beta-3 (IA) maximal response relative to isoproterenol” value was “(1)”. Also, in test [2], the EC50 was found to be 0.09 µM and the “beta-2 (IA) maximal response relative to isoproterenol” value was “(0.68)”. Also, in test [3], the concentration for a half-maximal effect (EC50) came to 1.28 µM and the “beta-1 (IA) maximal response relative to isoproterenol” value is “(0.58)”.
As to `COc1ccc(N(Cc2ccccc2)S(=O)(=O)c2ccc(N3CCC(NCC(O)COc4cccc5[nH]c(=O)[nH]c45)CC3)cc2)cc1OC` (stereo not shown) [Example 1, N-Benzyl-N-(3,4-dimethoxy-phenyl)-4-{4-[2-hydroxy-3-(2-oxo-2,3-dihydro-1H-benzoimidazol-4-yloxy)-propylamino]-piperidin-1-yl}-benzenesulfonamide], in test [1], the concentration giving a half-maximal response (EC50) came to 0.017 µM and the “beta-3 (IA) maximal response relative to isoproterenol” value is on record as “(0.92)”. In addition, the “beta-2 (IA) maximal response relative to isoproterenol” value in test [2] is listed as “(0)”. Besides, the “beta-1 (IA) maximal response relative to isoproterenol” value in test [3] is on record as “(0.09)”.
As to `CCCCN(Cc1ccccc1)S(=O)(=O)c1ccc(N2CCC(NC[C@H](O)COc3cccc4[nH]c(=O)[nH]c34)CC2)cc1` [Example 2, N-Benzyl-N-butyl-4-{4-[(2S)-2-hydroxy-3-(2-oxo-2,3-dihydro-1H-benzoimidazol-4-yloxy)-propylamino]-piperidin-1-yl}-benzenesulfonamide], in test [1], the EC50 came out at 0.094 µM and the “beta-3 (IA) maximal response relative to isoproterenol” value is “(1.1)”. Besides, the “beta-2 (IA) maximal response relative to isoproterenol” value in test [2] is given as “(0.03)”. The “beta-1 (IA) maximal response relative to isoproterenol” value in test [3] was “(0.16)”.
Consider `CCCCN(Cc1ccccc1)S(=O)(=O)c1ccc(N2CCC(NCC(O)c3ccc(O)c(NS(C)(=O)=O)c3)CC2)cc1` (stereo not shown) [Example 3, N-Benzyl-N-butyl-4-{4-[2-hydroxy-2-(4-hydroxy-3-methanesulfonylamino-phenyl)-ethylamino]-piperidin-1-yl}-benzenesulfonamide], for which, in test [1], the concentration for a half-maximal effect (EC50) was 0.015 µM and the “beta-3 (IA) maximal response relative to isoproterenol” value is listed as “(1.1)”. For the same compound, in test [2], the EC50 came to 0.31 µM and the “beta-2 (IA) maximal response relative to isoproterenol” value is recorded as “(0.59)”. Also, in test [3], the EC50 was found to be 2.1 µM and the “beta-1 (IA) maximal response relative to isoproterenol” value is “(0.66)”.
Regarding `O=c1[nH]c2cccc(OCC(O)CNC3CCN(c4ccc(S(=O)(=O)NCc5ccccc5)cc4)CC3)c2[nH]1` (stereo not shown) [Example 4, N-Benzyl-4-{4-[2-hydroxy-3-(2-oxo-2,3-dihydro-1H-benzoimidazol-4-yloxy)-propylamino]-piperidin-1-yl}-benzenesulfonamide], in test [1], the EC50 worked out at 0.021 µM and the “beta-3 (IA) maximal response relative to isoproterenol” value is reported as “(0.78)”. For the same compound, the “beta-2 (IA) maximal response relative to isoproterenol” value in test [2] was “(0)”. In addition, the “beta-1 (IA) maximal response relative to isoproterenol” value in test [3] is listed as “(0.17)”.
Regarding `CS(=O)(=O)Nc1cc(C(O)CNC2CCN(c3ccc(S(=O)(=O)NCc4ccccc4)cc3)CC2)ccc1O` (stereo not shown) [Example 5, N-Benzyl-4-{4-[2-hydroxy-2-(4-hydroxy-3-methanesulfonylamino-phenyl)-ethylamino]-piperidin-1-yl}-benzenesulfonamide], in test [1], the EC50 worked out at 0.016 µM and the “beta-3 (IA) maximal response relative to isoproterenol” value is “(0.98)”. Besides, the “beta-2 (IA) maximal response relative to isoproterenol” value in test [2] is listed as “(0.07)”. In test [3], the EC50 worked out at 2.2 µM and the “beta-1 (IA) maximal response relative to isoproterenol” value is “(0.59)”.
Take `O=S(=O)(NCc1ccccc1)c1ccc(N2CCC(NC[C@H](O)COc3ccc(O)cc3)CC2)cc1` [Example 6, N-Benzyl-4-{4-[(2S)-2-hydroxy-3-(4-hydroxy-phenoxy)-propylamino]-piperidin-1-yl}-benzenesulfonamide]: in test [1], the concentration giving a half-maximal response (EC50) turned out to be 0.2 µM and the “beta-3 (IA) maximal response relative to isoproterenol” value is “(0.76)”.
Regarding `COc1ccc(NS(=O)(=O)c2ccc(N3CCC(NC[C@H](O)COc4cccc5[nH]c(=O)[nH]c45)CC3)cc2)cc1OC` [Example 7, N-(3,4-Dimethoxy-phenyl)-4-{4-[(2S)-2-hydroxy-3-(2-oxo-2,3-dihydro-1H-benzoimidazol-4-yloxy)-propylamino]-piperidin-1-yl}-benzenesulfonamide], in test [1], the EC50 was 0.02 µM and the “beta-3 (IA) maximal response relative to isoproterenol” value is recorded as “(0.8)”. In addition, the “beta-2 (IA) maximal response relative to isoproterenol” value in test [2] is “(0.01)”. For the same compound, in test [3], the 50% effective concentration (EC50) amounted to 0.6 µM and the “beta-1 (IA) maximal response relative to isoproterenol” value is “(0.15)”.
Turning to `CS(=O)(=O)Nc1cc(C(O)CNC2CCN(c3ccc(S(=O)(=O)N4CCCC4C(=O)O)cc3)CC2)ccc1O` (stereo not shown) [Example 18, 1-(4-{4-[2-Hydroxy-2-(4-hydroxy-3-methanesulfonylamino-phenyl)-ethylamino]-piperidin-1-yl}-benzenesulfonyl)-pyrrolidine-2-carboxylic Acid], in test [1], the EC50 came to 0.041 µM and the “beta-3 (IA) maximal response relative to isoproterenol” value was “(0.99)”. In test [2], the half-maximal effective concentration (EC50) is 1 µM and the “beta-2 (IA) maximal response relative to isoproterenol” value is given as “(0.55)”. In test [3], the “beta-1 (IA) maximal response relative to isoproterenol” value is given as “(0.29)”.
In the case of `CCCCN(CC(=O)O)S(=O)(=O)c1ccc(N2CCC(NC[C@H](O)c3ccc(O)c(NS(C)(=O)=O)c3)CC2)cc1` [Example 20, [Butyl-(4-{4-[(2R)-2-hydroxy-2-(4-hydroxy-3-methanesulfonylamino-phenyl)-ethylamino]-piperidin-1-yl}-benzenesulfonyl)-amino]-acetic Acid], in test [1], the half-maximal effective concentration (EC50) amounted to 0.01 µM and the “beta-3 (IA) maximal response relative to isoproterenol” value is recorded as “(1)”. In addition, in test [2], the EC50 stood at 10 µM and the “beta-2 (IA) maximal response relative to isoproterenol” value is listed as “(0.3)”. Also, in test [3], the concentration for a half-maximal effect (EC50) came to 10 µM and the “beta-1 (IA) maximal response relative to isoproterenol” value is recorded as “(0.4)”.
For the compound `CCOC(=O)CN(C)S(=O)(=O)c1ccc(N2CCC(NC[C@H](O)c3ccc(O)c(NS(C)(=O)=O)c3)CC2)cc1` [Example 25, [(4-{4-[(2R)-2-Hydroxy-2-(4-hydroxy-3-methanesulfonylamino-phenyl)-ethylamino]-piperidin-1-yl}-benzenesulfonyl)-methyl-amino]-acetic Acid Ethyl Ester], in test [1], the EC50 came to 0.052 µM and the “beta-3 (IA) maximal response relative to isoproterenol” value is reported as “(1)”. For the same compound, in test [2], the EC50 worked out at 1.43 µM and the “beta-2 (IA) maximal response relative to isoproterenol” value was “(0.37)”. Moreover, in test [3], the EC50 is 1 µM and the “beta-1 (IA) maximal response relative to isoproterenol” value is given as “(0.63)”.
Consider `CS(=O)(=O)Nc1cc([C@@H](O)CNC2CCN(c3ccc(S(=O)(=O)N(CC(=O)O)CC(=O)O)cc3)CC2)ccc1O` [Example 55, 2-((Carboxymethyl)[(4-{4-[((2R)-2-hydroxy-2-{4-hydroxy-3-[(methylsulfonyl)amino]phenyl)ethyl)amino]-1-piperidinyl}phenyl)sulfonyl]amino}acetic Acid], for which, in test [1], the half-maximal effective concentration (EC50) was 0.41 µM and the “beta-3 (IA) maximal response relative to isoproterenol” value is on record as “(0.94)”.
